Assay results reported in the supplement of paper PMC4862054.

Legend:
Settings in all cases: incubation time: 72 h
CAL-85-1 [1] = experiment: normalised viability (% of control), CellTiter-Blue; higher = more viable cells (about 100 = DMSO control)
Summary of the method: (§1)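 Plates were quality-checked by Z'-factor and normalised to vehicle (100) and a positive kill control (0). The underlying assay incubated breast cancer cell lines for 72 h on 384-well plates with compound, then added 2.5 µl CellTiter-Blue for 2 h at 37 °C and read at 560/590 nm. The value is normalised viability at a single listed concentration of the series.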

BT-549 [2] = experiment: as above
Summary of the method: as §1

MDA-MB-468 [3] = experiment: as above
Summary of the method: as §1

CAL-51 [4] = experiment: as above
Summary of the method: as §1

CAL-148 [5] = experiment: as above
Summary of the method: as §1

HCC1143 = experiment: as above
Summary of the method: as §1

HCC1599 [6] = experiment: as above
Summary of the method: as §1

MFM-223 = experiment: as above
Summary of the method: as §1

Hs578T [7] = experiment: as above
Summary of the method: as §1

MDA-MB-453 [8] = experiment: as above
Summary of the method: as §1

BT-474 [9] = experiment: as above
Summary of the method: as §1

CAL-85-1 [10] = experiment: drug sensitivity score (DSS), CellTiter-Blue viability (DSS (AUC-based score)); higher = stronger viability inhibition; extreme values may be limits of the assay
Summary of the method: (§2)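 Drug sensitivity scores correspond to the area under the fitted dose-response curve. Breast cancer cell lines were incubated 72 h with compound at 5 or 9 concentrations in 384-well plates. Viability, read as CellTiter-Blue fluorescence at 560/590 nm, was normalised per plate to 0.1 % DMSO and a positive kill control.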

BT-549 [11] = experiment: as above
Summary of the method: as §2

MDA-MB-468 [12] = experiment: as above
Summary of the method: as §2

CAL-51 [13] = experiment: as above
Summary of the method: as §2

SK-BR-3 = experiment: as above
Summary of the method: as §2

CAL-148 [14] = experiment: as above
Summary of the method: as §2

HCC1599 [15] = experiment: as above
Summary of the method: as §2

Hs578T [16] = experiment: as above
Summary of the method: as §2

MDA-MB-436 = experiment: as above
Summary of the method: as §2

MDA-MB-453 [17] = experiment: as above
Summary of the method: as §2

BT-474 [18] = experiment: as above
Summary of the method: as §2

MDA-MB-231 = experiment: as above
Summary of the method: as §2

HDQ-P1 = experiment: as above
Summary of the method: as §2

COc1cc2c(N3CCN(C(=O)Nc4ccc(OC(C)C)cc4)CC3)ncnc2cc1OCCCN1CCCCC1 [Tandutinib]
normalised viability [%]
Settings | 0.3 nM | 1 nM | 3 nM | 10 nM | 100 nM | 1000 nM
BT-474 [9] | – | 138 | – | – | 116 | 125
BT-549 [2] | – | 108 | – | – | 95.2 | 94.1
CAL-51 [4] | 110 | – | 101 | 94.2 | – | –
CAL-85-1 [1] | 102 | – | 91.2 | 103 | – | –
CAL-148 [5] | 100 | – | 102 | 105 | – | –
HCC1143 | – | 100 | – | – | 118 | 108
HCC1599 [6] | – | 99.1 | – | – | 121 | 103
Hs578T [7] | – | 115 | – | – | 116 | 96.2
MDA-MB-453 [8] | 117 | – | 94.9 | 96.9 | – | –
MDA-MB-468 [3] | – | 105 | – | – | 118 | 110
MFM-223 | – | 104 | – | – | 98 | 113

Settings | drug sensitivity score
BT-474 [18] | 0
BT-549 [11] | 0
CAL-51 [13] | 0
CAL-85-1 [10] | 0
CAL-148 [14] | 0.668
HCC1599 [15] | 0
HDQ-P1 | 0
Hs578T [16] | 0
MDA-MB-231 | 0
MDA-MB-436 | 0
MDA-MB-453 [17] | 0
MDA-MB-468 [12] | 0
SK-BR-3 | 0

C[C@@H](C(=O)O)c1ccc(-c2ccccc2)c(F)c1 [Tarenflurbil]
normalised viability [%]
Settings | 3 nM | 10 nM | 30 nM | 100 nM | 1000 nM | 10000 nM
BT-474 [9] | – | 112 | – | – | 107 | 113
BT-549 [2] | – | 97.6 | – | – | 104 | 112
CAL-51 [4] | 118 | – | 115 | 111 | – | –
CAL-85-1 [1] | 87.2 | – | 88.4 | 93 | – | –
CAL-148 [5] | 80 | – | 96.6 | 87.3 | – | –
HCC1143 | – | 86.4 | – | – | 95.3 | 86.9
HCC1599 [6] | – | 94.6 | – | – | 118 | 106
Hs578T [7] | – | 97.7 | – | – | 106 | 92.6
MDA-MB-453 [8] | 106 | – | 89.2 | 85.6 | – | –
MDA-MB-468 [3] | – | 100 | – | – | 119 | 90
MFM-223 | – | 93.6 | – | – | 97.2 | 93.2

Settings | drug sensitivity score
BT-474 [18] | 0
BT-549 [11] | 0
CAL-51 [13] | 0
CAL-85-1 [10] | 0
CAL-148 [14] | 0
HCC1599 [15] | 0
HDQ-P1 | 0
Hs578T [16] | 0
MDA-MB-231 | 0
MDA-MB-436 | 0
MDA-MB-453 [17] | 1.49
MDA-MB-468 [12] | 0
SK-BR-3 | 0

Cn1nnc2c(C(N)=O)ncn2c1=O [Temozolomide]
normalised viability [%]
Settings | 3 nM | 10 nM | 30 nM | 100 nM | 1000 nM | 10000 nM
BT-474 [9] | – | 94.7 | – | – | 100 | 87.5
BT-549 [2] | – | 105 | – | – | 91.6 | 74.7
CAL-51 [4] | 91.1 | – | 96.3 | 91.4 | – | –
CAL-85-1 [1] | 102 | – | 98.2 | 107 | – | –
CAL-148 [5] | 94 | – | 88.8 | 93 | – | –
HCC1143 | – | 90.5 | – | – | 95.9 | 102
HCC1599 [6] | – | 103 | – | – | 89.8 | 117
Hs578T [7] | – | 104 | – | – | 92.7 | 85.1
MDA-MB-453 [8] | 112 | – | 108 | 100 | – | –
MDA-MB-468 [3] | – | 92.3 | – | – | 89.5 | 99.1
MFM-223 | – | 98.4 | – | – | 96.7 | 103

Settings | drug sensitivity score
BT-474 [18] | 0
BT-549 [11] | 2.1
CAL-51 [13] | 0
CAL-85-1 [10] | 0
CAL-148 [14] | 0
HCC1599 [15] | 0
HDQ-P1 | 1.58
Hs578T [16] | 0
MDA-MB-231 | 0
MDA-MB-436 | 0
MDA-MB-453 [17] | 0
MDA-MB-468 [12] | 0
SK-BR-3 | 0

CC[C@@H]1C(=O)N(C)c2cnc(Nc3ccc(C(=O)N[C@H]4CC[C@H](N5CCN(CC6CC6)CC5)CC4)cc3OC)nc2N1C(C)C [Volasertib]
normalised viability [%]
Settings | 0.3 nM | 1 nM | 3 nM | 10 nM | 100 nM | 1000 nM
BT-474 [9] | – | 127 | – | – | 56.6 | 96.8
BT-549 [2] | – | 94.9 | – | – | 36.9 | 41.6
CAL-51 [4] | 116 | – | 99.8 | 100 | – | –
CAL-85-1 [1] | 96.4 | – | 86.7 | 82.3 | – | –
CAL-148 [5] | 98.2 | – | 94.8 | 72 | – | –
HCC1143 | – | 86.3 | – | – | 41.2 | 41.2
HCC1599 [6] | – | 94.6 | – | – | 86.2 | 74
Hs578T [7] | – | 111 | – | – | 40.3 | 35.1
MDA-MB-453 [8] | 117 | – | 89.9 | 46.2 | – | –
MDA-MB-468 [3] | – | 104 | – | – | 45 | 51.9
MFM-223 | – | 88.8 | – | – | 48.9 | 56.2

Settings | drug sensitivity score
BT-474 [18] | 8.65
BT-549 [11] | 12.3
CAL-51 [13] | 17.6
CAL-85-1 [10] | 10.9
CAL-148 [14] | 17.8
HCC1599 [15] | 0
HDQ-P1 | 5.17
Hs578T [16] | 11.3
MDA-MB-231 | 12.3
MDA-MB-436 | 3.18
MDA-MB-453 [17] | 19.2
MDA-MB-468 [12] | 11.9
SK-BR-3 | 19.8
